Laboratory results: paper PMC7280531, “A PROTAC peptide induces durable β-catenin degradation and suppresses Wnt-dependent intestinal cancer” (Cell Discovery, 2020)
Where a SMILES comes first, the peptide text is derived from it. Bridges are numbered along the chain shown (N, C = ends). [ ]: non-standard residue; d: D form. S5 = C=CCCC[C@](C)(N)C(=O)O; Ahx = NCCCCCC(=O)O

What was measured:
Wnt/β-catenin signaling = test: Topflash luciferase reporter assay in HEK293T cells; assay type: cell-based; details: Wnt3a CM, 24 h
Protocol: Dual luciferase reporter assay system (Promega) was used. HEK293T cells, cultured in 24-well plates, were transfected with 200 ng Topflash plasmid and 30 ng Renilla plasmid for 3-well cells. […] Then harvested the cells for luciferase activity measurement.

intestinal tumors = test: Intestinal tumors in APC^min/+ mice
Protocol: Because APC^min/+ mice can develop intestinal tumors around 10 weeks-old[26], the 11 weeks-old APC^min/+ mice were intraperitoneally injected with 30 mg/kg vehicle DMSO or peptides at every other day for 14 days. Then the mice were sacrificed for analysis of intestinal tumors.
Tumor number of the whole intestinal tract was analyzed in the lower panel.

SW480 cells = test: Cell permeability of FITC-labeled peptides in SW480 cells (confocal microscopy); assay type: cell-based
Protocol: After elongation of the peptide and metathesis reaction were conducted on the resin according to a general protocol. Then, the Fmoc group was removed and the resin was treated with Fmoc-Ahx-OH (4 eq.), DIC (4 eq.), Oxyma pure (4 eq.) and NMP (6 mL) for 15 min at 60 °C. The Fmoc group was removed and the resin was treated with fluorescein isothiocyanate (FITC, 2 eq.) and DIPEA (2 eq.) in DMF (6 mL) at room temperature overnight. The biotinylated labeling was carried out as routine amino acid. Cleavage was conducted following a general protocol and crude peptide was purified by RP- HPLC to give the final products.
Supplementary Fig. S3. Cell permeability of FITC-labeled peptides in SW480 […]
(a) The uptake of FITC-labeled peptides into SW480 was examined after incubation for 6 h by confocal microscopy. The nuclei were counter-stained with DAPI. Scale bar = 100 μm. (b) FITC-xStAx and FITC-xStAx-VHLL were added to SW480 cells for 6 h, and then washed out with the growth medium. After 24 h and 48 h, the cells were counter-stained with DAPI and examined by confocal microscopy. Scale bar = 100 […]
(1 picture or pasted object on this page, not shown here)

HCT116 cells = test: Cell proliferation assay (CCK-8), HCT116 cells; assay type: cell-based; details: 50 μM peptides, 6 days, cell number counted each day
Protocol: Equal number of cells (8000–10,000 cells) were seeded in the 24-well plates and then subjected to different treatments. The cell numbers were counted every 24 h with the CCK-8 cell counting kit (Dojindo Molecular Technologies) according to manufacturer’s instructions.

Axin2 expression = test: Axin2^LacZ Wnt reporter mice, β-galactosidase staining of small intestine; assay type: in vivo; details: i.p. injection, 7 doses/14 days
Protocol: The small intestines were isolated from Axin2^LacZ reporter mice, washed with PBS and fixed in 4 % paraformaldehyde for 1 h at room temperature, then cut into small pieces (1 cm). The tissue pieces were stained with in situ β-galactosidase staining kit (Beyotime) according to the manufacturer’s instruction. The stained tissues were transferred to tissue cassettes and paraffin blocks prepared using standard methods. The tissues were sliced into 5 μm thick sections with paraffin slicing machine (RM2235, Leica) and subjected to hematoxylin staining.

β-catenin = target: T1, β-catenin (Homo sapiens, UniProt P35222); test: β-catenin immunoblotting / immunoprecipitation in HEK293T cells
T1 sequence (P35222 1-781): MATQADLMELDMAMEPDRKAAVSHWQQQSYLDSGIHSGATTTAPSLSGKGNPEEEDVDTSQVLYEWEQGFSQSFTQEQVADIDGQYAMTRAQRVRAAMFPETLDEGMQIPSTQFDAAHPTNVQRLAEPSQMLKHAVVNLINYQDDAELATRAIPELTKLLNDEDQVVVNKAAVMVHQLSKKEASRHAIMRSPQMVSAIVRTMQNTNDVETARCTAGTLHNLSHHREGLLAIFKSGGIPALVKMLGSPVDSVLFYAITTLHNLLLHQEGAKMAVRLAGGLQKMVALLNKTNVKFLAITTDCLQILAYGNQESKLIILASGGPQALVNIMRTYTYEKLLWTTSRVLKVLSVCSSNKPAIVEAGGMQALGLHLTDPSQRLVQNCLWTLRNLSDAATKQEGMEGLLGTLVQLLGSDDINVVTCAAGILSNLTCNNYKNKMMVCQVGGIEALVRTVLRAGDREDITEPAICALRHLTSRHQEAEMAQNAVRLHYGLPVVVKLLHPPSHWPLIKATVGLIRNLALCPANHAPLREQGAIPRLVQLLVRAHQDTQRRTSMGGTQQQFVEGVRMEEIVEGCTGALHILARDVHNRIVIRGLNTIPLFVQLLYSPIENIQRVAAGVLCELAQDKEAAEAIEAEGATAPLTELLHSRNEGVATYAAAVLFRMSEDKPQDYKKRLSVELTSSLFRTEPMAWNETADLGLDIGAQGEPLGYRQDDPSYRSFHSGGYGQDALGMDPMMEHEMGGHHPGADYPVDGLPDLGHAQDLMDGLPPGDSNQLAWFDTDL
Protocol: The relative band intensity was quantified with ImageJ and normalized to GAPDH.
For immunoprecipitation, the cells were lysed in TNE lysis buffer (50 mM Tris-HCl, pH 8.0, 150 mM NaCl, 1% Nonidet P-40, and protease inhibitor cocktail). […] After 18,000×g centrifugation for 10 min, the lysates were immunoprecipitated with specific antibody and protein A-Sepharose beads and then washed the beads with TNE buffer for three times before immunoblotting.

SMILES: CC[C@H](C)[C@@H]1NC(=O)[C@@](C)(NC(=O)[C@H](CCCNC(=N)N)NC(=O)[C@@H]2CCCN2C(=O)[C@H](Cc2c[nH]c3ccccc23)NC(=O)[C@H](CCCNC(=N)N)NC(=O)[C@H](CCCNC(=N)N)NC(C)=O)CCCC=CCCC[C@@](C)(C(=O)N[C@@H](Cc2c[nH]cn2)C(=O)N[C@H](C(=O)N[C@@H](CCCNC(=N)N)C(=O)N[C@@H](CCCNC(=N)N)C(=O)N[C@H](C(=O)N[C@@H](Cc2c[nH]c3ccccc23)C(=O)N[C@@H](CCCNC(=N)N)C(=O)NCCCCCC(=O)N[C@@H](C)C(=O)N[C@@H](CC(C)C)C(=O)N[C@@H](C)C(=O)N2CCC[C@H]2C(=O)N[C@@H](Cc2ccc(O)cc2)C(=O)N[C@H](C(=O)N2CCC[C@H]2C(N)=O)[C@@H](C)CC)C(C)C)C(C)C)NC(=O)[C@H](CC(=O)O)NC(=O)[C@H](CC(C)C)NC1=O [xStAx-VHLL] (Ac-RRWPR[S5]ILD[S5]HVRRVWR[Ahx]ALAPYIP-NH2; staple 6-10; N-terminus and C-terminus assumed)
- inhibition of Wnt-induced Topflash-luciferase compared with small-molecule inhibitors (Wnt/β-catenin signaling; 70 μM xStAx-VHLL vs 10 μM XAV939, 20 μM PRI-724, 100 μM PNU-74654, 10 μM MSAB): comparable inhibition
- dose dependence of effect on Wnt signaling (Topflash) (Wnt/β-catenin signaling; indicated concentrations): dose-dependent effect on Wnt signaling
- Wnt3a-induced expression of the Topflash-luciferase reporter (Wnt/β-catenin signaling; peptides 70 μM each): more potent in decreasing the Wnt3a-induced expression of the reporter
- active β-catenin protein level in small intestine (intestinal tumors; 30 mg/kg i.p. 7 times, immunoblot, compared with the vehicle group): also decreased
- intestinal tumor number (intestinal tumors; 11 weeks-old mice, 30 mg/kg i.p. every other day for 14 days (7 times), vs day 0 or DMSO): dramatically reduced tumor number
- retention in the cell after wash-out (SW480 cells; 6 h, washed out with growth medium, examined after 24 h and 48 h): retained in the cell much longer
- membrane permeability / uptake into cells (SW480 cells; 6 h incubation): could efficiently enter into a cell
- proliferation of HCT116 cells (HCT116 cells): significantly attenuated the proliferation
- Axin2 expression (β-galactosidase staining) (Axin2 expression): significantly blocked Axin2 expression
- β-catenin protein level, MSAB versus xStAx-VHLL (β-catenin; 10 μM MSAB, 50 μM xStAx-VHLL (legend: 70 μM, Wnt3a CM), 24 h): decreased β-catenin protein to a comparable level
- β-catenin ubiquitination (β-catenin; 50 μM peptide 24 h, MG132 10 μM 12 h, IP and immunoblot): promoted β-catenin ubiquitination
- time post treatment at which β-catenin degradation started (β-catenin; 70 μM peptide and Wnt3a CM, immunoblot time course): 12 h
- endogenous β-catenin protein level (β-catenin; 70 μM peptide, 24 h, without Wnt3a, immunoblot): reduced the β-catenin level
- β-catenin protein level in Wnt3a-treated cells (β-catenin; 70 μM peptide, Wnt3a CM, 24 h, immunoblot, lower than xStAx): significantly downregulated β-catenin protein level
- β-catenin level after wash-out of the drug (β-catenin; MSAB 10 μM or xStAx-VHLL 70 μM 24 h, then fresh medium 24 or 48 h): durable degradation of β-catenin
